Results from US20200190073A1, “SUBSTITUTED SUCCINIMIDE DERIVATIVES AS PESTICIDES” (BASF SE, priority 2017, published 2020).
Where two headings read alike, the source gives them in different places.

Experiments:
Type in all cases: in vivo
[1] = tested on: Green Peach Aphid (Myzus persicae); assay: B.2 Green peach aphid, artificial diet, systemic; details: 72 h, read-out: mortality in comparison with untreated controls
Outline: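 Adult aphids (5-8 per well) fed through a membrane on artificial diet containing compound formulated in 75% water/25% DMSO, with two replications per concentration. Incubation lasted 3 days at about 23±1° C and 50±5% relative humidity. Mortality and fecundity were then assessed visually.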

[2] = tested on: Vetch Aphid (Megoura viciae); assay: B.3 Vetch aphid, broad bean leaf disks; details: foliar, 120 h, read-out: mortality in comparison with untreated controls
Outline: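 Broad bean leaf disks sprayed with compounds in 25% DMSO/water at various concentrations, two replicates, then air-dried and infested with 5-8 adult Megoura viciae (contact/systemic exposure). After 5 days at about 23±1 °C and 50±5% RH, mortality and fecundity scored visually.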

[3] = tested on: Orchid Thrips (Dichromothrips Corbetti); assay: B.7 Orchid thrips, floral immersion; details: read-out: mortality in comparison with untreated controls
Outline: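 Orchid flower petals dipped in compound diluted in 1:1 acetone:water plus 0.01% v/v Kinetic HV, dried, then enclosed with about 20 adult lab-colony thrips. Held under continuous light at about 28 °C; percent mortality recorded 72 hours after treatment.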

[4] = tested on: Rice Green Leafhopper (Nephotettix virescens); assay: B.8 Rice green leafhopper, sprayed rice seedlings; details: read-out: mortality in comparison with untreated controls
Outline: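 Potted rice seedlings, washed 24 h earlier, were sprayed with 5-6 ml of compound in 1:1 acetone:water plus 0.01% surfactant. Once dry, they were caged and infested with 10 adults, then held at about 28-29° C and 50-60% RH. Percent mortality was scored at 72 h.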

[5] = tested on: Red Spider Mite (Tetranychus kanzawai); assay: B.9 Red spider mite, sprayed cowpea beans; details: read-out: mortality in comparison with untreated controls
Outline: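 Potted cowpea beans aged 4-5 days were sprayed with compound in 1:1 water:acetone plus 0.01% surfactant, air dried, then infested with ≥30 mites. Kept at about 25-27° C and 50-60% relative humidity; percent mortality scored 72 h after treatment.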

[6] = tested on: Neotropical Brown Stink Bug (Euschistus heros); assay: B.12 Neotropical brown stink bug, dipped pole bean; details: 120 h, read-out: mortality in comparison with untreated controls
Protocol: B.12 Neotropical Brown Stink Bug (Euschistus heros)
For evaluating control of Euschistus heros through contact the test unit consisted of 100 ml disposable plastic beakers with transparent lids.
The compounds were formulated using a solution containing 50% water and 50% acetone. 50 ml of different concentrations of formulated compounds or mixtures were prepared in a glass petri dish and used for dipping three 6 cm sections of fresh pole bean. Each treatment was replicated eight times.
After application, the pole bean sections were air-dried and 5 adult E. heros placed in each beaker. The E. heros were then allowed to suck on the treated pole bean sections and incubated at 23±1° C., 50±5% RH for 5 days. E. heros mortality was then visually assessed.

[7] = tested on: Brown Marmorated Stink Bug (Halyomorpha halys); assay: B.13 Brown marmorated stink bug, spray; details: 120 h, read-out: mortality in comparison with untreated controls
Protocol: B.13 Brown Marmorated Stink Bug (Halyomorpha halys)
The active compound was dissolved at the desired concentration in a mixture of 1:1 (vol:vol) distilled water:acetone. Surfactant (Kinetic HV) was added at a rate of 0.01% (vol/vol). The test solution was prepared at the day of use.
Row peanuts and soybean seeds were placed into microwavable plastic cups and inoculated with five adult stage H. halys. Using a hand atomizer, approximately 1 ml solution is sprayed into each cup, insects and food present. A water source was provided (cotton wick with water) Each treatment is replicated 4-fold. Assay arenas are kept at about 25° C. Percent mortality was recorded after 5 days.

[8] = tested on: Southern Armyworm (Spodoptera eridania), 2nd Instar Larvae; assay: CE.7 Southern armyworm, 2nd instar larvae, comparative test; details: foliar, 96 h, leaf dip, at 4 days, read-out: % mortality in comparison to untreated controls
Protocol: The tables show % mortality in comparison to untreated controls.
CE.7 Southern Armyworm (Spodoptera eridania), 2nd Instar Larvae
The active compounds were formulated in 50:50 acetone:water (vol) and 100 ppm Kinetica™ surfactant.
A pair of first true leaves of Sieva lima bean was dipped into the test solution and allowed to dry. The leaves were then placed in a plastic perforated zip enclosure bag and ten 2nd instar larvae were added. At 4 days, observations were made of mortality and reduced feeding.

| Compound | mortality at 2500 ppm ([1]; 2500 ppm, adult aphids on treated diet, 3 days) | mortality at 2500 ppm ([2]; 2500 ppm, sprayed leaf disks, 5 days) | mortality at 300 ppm ([3]; 300 ppm, adult thrips, 72 hours after treatment) | mortality at 300 ppm ([4]; 300 ppm, adults on sprayed rice seedlings, after 72 hours) | mortality at 300 ppm ([5]; 300 ppm, 72 hours after treatment) | mortality at 2500 ppm [1] | mortality at 2500 ppm [2] | mortality at 300 ppm ([3]; Thrips, 72 h) | mortality at 300 ppm ([4]; 72 h) | mortality at 300 ppm ([5]; 72 h) | mortality at 500 ppm [6] | mortality at 100 ppm [7] | mortality at 3 ppm [8] |
| --- | --- | --- | --- | --- | --- | --- | --- | --- | --- | --- | --- | --- | --- |
| CCN1C(=O)C[C@@H](NC(=O)c2ccc(C3=NOC(c4ccc(F)c(Cl)c4)(C(F)(F)F)C3)cc2Cl)C1=O (stereo partly shown) [Compound I-1-53] | > 75% | > 75% | > 75% | > 75% | > 75% |  |  |  |  |  |  |  |  |
| CN1C(=O)C[C@@H](NC(=O)c2ccc(C3=NOC(c4cc(Cl)c(F)c(Cl)c4)(C(F)(F)F)C3)cc2Cl)C1=O (stereo partly shown) [Compound I-1-13] |  |  |  |  |  | > 75% | > 75% | > 75% | > 75% | > 75% | > 75% | > 75% |  |
| CN1C(=O)CC(NC(=O)c2ccc(C3=NOC(c4cc(Cl)c(F)c(Cl)c4)(C(F)(F)F)C3)cc2Cl)C1=O (stereo not shown) [Compound I-1-2, 2-Chloro-4-[5-(3,5-dichloro-4-fluoro-phenyl)-5-(trifluoromethyl)-4H-isoxazol-3-yl]-N-(1-methyl-2,5-dioxo-pyrrolidin-3-yl)benzamide] |  |  |  |  |  | > 75% | > 75% | > 75% | > 75% | > 75% | > 75% | > 75% | 100% |
| CN1C(=O)CC(NC(=O)c2ccc(C3=NOC(c4cc(Cl)c(F)c(Cl)c4)(C(F)(F)F)C3)c3c2CCC3)C1=O (stereo not shown) [Compound I-1-10] |  |  |  |  |  | > 75% | > 75% | > 75% | > 75% | > 75% | > 75% |  | 100% |
| CCN1C(=O)CC(NC(=O)c2ccc(C3=NOC(c4cc(Cl)c(F)c(Cl)c4)(C(F)(F)F)C3)cc2Cl)C1=O (stereo not shown) [Compound I-1-3] |  |  |  |  |  | > 75% | > 75% | > 75% | > 75% | > 75% |  | > 75% | 100% |
